Like-named read-outs stand apart in the source and are kept apart here.
Columns and labels:
M109 lung carcinoma = assay: Mice M109 model, advanced distal site antitumor IV testing; type: in vivo, Balb/c×DBA 2 F1 (CDF1) hybrid mice; settings: for Maximum Effect T-C days (delay of median time to grow tumor to 1 gm): intravenous, once daily on days 4-8 post-tumor implant, sc tumor
Procedure: Mice M109 Model (In-Vivo Activity)
Balb/c×DBA 2 F1 (CDF1) hybrid mice were implanted subcutaneously (sc) with 0.1 mL of a 2% (w/v) brei of M109 lung carcinoma (as described by William Rose in Evaluation of Madison 109 Lung Carcinoma as a Model for Screening Antitumor Drugs, Cancer Treatment Reports, 65, No. 3-4 (1981)).
The test compounds and reference drug, paclitaxel, were administered intravenously to groups of mice; each group received a compound at a different dose level, and three or four different dose levels were evaluated per compound. Mice were treated with compounds intravenously, once daily, on days 4, 5, 6, 7, and 8 post-tumor implant. Mice were followed daily for survival until their death or approximately 60-90 days post-tumor implant whichever occurred first. One group of mice per experiment remained untreated and served as the primary control group; a secondary control group was typically included and received 1/10th the tumor inocula of all the other groups of mice (i.e., 0.1 ml of a 0.2% (w/v) brei of M109 lung carcinoma). Tumors were also measured once or, more often, twice weekly to estimate the tumor weight according to the published procedure (ibid).
Median survival times of compound-treated (T) mice were compared to the median survival time of the control (C) mice. The ratio of the two values for each compound-treated group of mice was multiplied by 100 and expressed as a percentage (i.e. % T/C) in the following Table II for representative compounds. Additionally, the difference between the median time for treated groups and that for the control group to grow tumor to 1 gm, expressed as T-C values in days, is also shown in the following table. The greater the T-C value, the greater the delay in primary tumor growth. […] When the difference in the time to grow 1 gm tumors in both primary and secondary control groups is greater than 4 days, that difference becomes the criterion for activity.
Advanced Distal Site Antitumor IV Testing of Paclitaxel Derivatives

[1] = test system: HCT116 human colon carcinoma cells; assay: XTT cytotoxicity assay in HCT116 human colon carcinoma cells; type: cell-based; settings: read-out: Cytotoxicity Assay IC50 against HCT 116 Human colon tumor cell line
Procedure: Cytotoxicity was assessed in HCT116 human colon carcinoma cells by XTT (2,3-bis(2-methoxy-4-nitro-5-sulfophenyl)-5-[(phenylamino)carbonyl]-2H-tetrazolium hydroxide assay (1). Cells were plated at 4000 cells/well in 96 well microtiter plates and 24 hrs later drugs were added and serial diluted. The cells were incubated at 37° C. for 72 hrs at which time the tetrazolium dye, XTT, containing phenazine methosulfate was added. A dehydrogenase enzyme in live cells reduces the XTT to a form that absorbs light at 450 nm which can be quantitated spectrophotometrically. The greater the absorbance the greater the number of live cells. The results are expressed as an IC50 which is the drug concentration required to inhibit cell proliferation (i.e. absorbance at 450 nm) to 50% of that of untreated control cells.
The IC50 values for compounds evaluated in this assay are contained in Table I.

[2] = cited from earlier work
[3] = HCT-116, XTT, 72 hrs incubation at 37° C.

## CC(=O)O[C@H]1C(=O)[C@]2(C)[C@@H](OC[S+](C)[O-])C[C@H]3OC[C@@]3(OC(C)=O)[C@H]2[C@H](OC(=O)c2ccccc2)[C@]2(O)C[C@H](OC(=O)[C@H](O)[C@@H](NC(=O)c3ccccc3)c3ccccc3)C(C)=C1C2(C)C (some centres unmarked)
M109 lung carcinoma; 15 mg/kg
  Maximum Effect % T/C (median survival time, treated vs control): 141%
M109 lung carcinoma; 25 mg/kg
  Maximum Effect % T/C (median survival time, treated vs control): 129%
M109 lung carcinoma; Opt. dose 15 mg/kg/inj
  Maximum Effect T-C days (delay of median time to grow tumor to 1 gm): 9.0 days
M109 lung carcinoma; Opt. dose 25 mg/kg/inj
  Maximum Effect T-C days (delay of median time to grow tumor to 1 gm): 10.0 days

## CC(=O)O[C@H]1C(=O)[C@]2(C)[C@@H](OCS(C)(=O)=O)C[C@H]3OC[C@@]3(OC(C)=O)[C@H]2[C@H](OC(=O)c2ccccc2)[C@]2(O)C[C@H](OC(=O)[C@H](O)[C@@H](NC(=O)c3ccccc3)c3ccccc3)C(C)=C1C2(C)C [4 (Example 2)]
[1]; [3]
  IC50: 2.8 nM

## CC(=O)O[C@H]1C(=O)[C@@]2(C)[C@H]([C@H](OC(=O)c3ccccc3)[C@]3(O)C[C@H](OC(=O)[C@H](O)[C@@H](NC(=O)c4ccccc4)c4ccccc4)C(C)=C1C3(C)C)[C@]1(OC(C)=O)CO[C@@H]1C[C@@H]2O [paclitaxel]
[1]; [3]
  IC50: 4.9 to 5.9 nM
[2]
  antitumor activity in in vivo animal models, in words: excellent antitumor activity

## CC(=O)O[C@H]1C(=O)[C@]2(C)[C@@H](OC[S+](C)[O-])C[C@H]3OC[C@@]3(OC(C)=O)[C@H]2[C@H](OC(=O)c2ccccc2)[C@]2(O)C[C@H](OC(=O)[C@H](O)[C@@H](NC(=O)c3ccccc3)c3ccccc3)C(C)=C1C2(C)C (some centres unmarked) [2 & 3 (Example 1)]
[1]; HCT-116, 72 h
  IC50: 13 nM
